# Measurements from patent publication US9844536B2, “3-(1H-imidazo[4,5-C]pyridin-2-yl)-1H-pyrazolo[3,4-C]pyridine and therapeutic uses thereof” (Samumed, LLC, priority 2014, dated 2017).
# Experiments:
# [1] = tested on: Wnt pathway (Sp5-Luc reporter, SW480 cells); assay: Sp5-Luc reporter gene screening assay for Wnt activity in SW480 colon carcinoma cells; format: cell-based; conditions: Homo sapiens
# Description: The screening assay for Wnt activity is described as follows. Reporter cell lines can be generated by stably transducing cancer cell lines (e.g., colon cancer) or primary cells (e.g., IEC-6 intestinal cells) with a lentiviral construct that includes a Wnt-responsive promoter driving expression of the firefly luciferase gene.
# SW480 colon carcinoma cells were transduced with a lentiviral vector expressing luciferase with a human Sp5 promoter consisting of a sequence of eight TCF/LEF binding sites. SW480 cells stably expressing the Sp5-Luc reporter gene and a hygromycin resistance gene were selected by treatment with 150 μg/ml of hygromycin for 7 days. These stably transduced SW480 cells were expanded in cell culture and used for all further screening activities. For Sp5-Luc reporter gene assays, the cells were plated at 10,000 cells/well in 96-well plates with growth medium containing 10% fetal calf serum and incubated overnight at 37° C. and 5% CO2. Each compound was dissolved in DMSO as a 10 mM stock in standard j-vials and used to prepare compound source plates in dose-response format with 3-fold serial dilutions and a 10 mM top concentration. Compound transfer from serially diluted source plates to assay plates containing the cells was accomplished using a pintool (Multimek 96, Beckman equipped with V&P Scientific FP1S50H pins) based liquid handling protocol. This protocol used a slotted pin to transfer 50 nl of compound from a source plate well to an assay plate well containing 50 μl of cells in growth medium. […] Control wells received 50 nl of DMSO treatment for normalization and calculating IC50 values. The treated cells were incubated at 37° C. and 5% CO2 for an additional forty-two hours. Following incubation, the growth medium was removed and 50 μl of BrightGlo luminescence reagent (Promega) was added to each well of the 96-well assay plates. The plates were placed on an orbital shaker for 5 min and then luminescence was quantified on the Victor3 (Perkin Elmer) plate reader. Readings were normalized to DMSO only treated cells, and normalized activities were utilized for IC50 calculations using the dose-response log (inhibitor) vs. response-variable slope (four parameters) nonlinear regression feature available in GraphPad Prism 5.0 or 6.0.
# LL29 cells = assay: Inhibition of the fibrotic process (αSMA staining) in TGF-β1 treated primary human fibroblasts from IPF patients; format: cell-based; conditions: Fibroblast, 96 h, TGF-β1 20 ng/mL, 4 days, dose-response 10 μM to 1.87 nM, read-out: Inhibition of fibrosis EC50
# Description: The above synthesized compounds were screened using primary human fibroblasts (derived from IPF patients) treated with TGF-β1 to determine their ability to inhibit the fibrotic process.
# Primary human fibroblasts derived from IPF patients (LL29 cells) [^1Xiaoqiu Liu, et. al., “Fibrotic Lung Fibroblasts Show Blunted Inhibition by cAMP Due to Deficient cAMP Response Element-Binding Protein Phosphorylation”, Journal of Pharmacology and Experimental Therapeutics (2005), 315(2), 678-687; ^2Watts, K. L., et. al., “RhoA signaling modulates cyclin D1 expression in human lung fibroblasts; implications for idiopathic pulmonary fibrosis”, Respiratory Research (2006), 7(1), 88] were obtained from American Type Culture Collection (ATCC) and expanded in F12 medium supplemented with 15% Fetal Bovine Serum and Penicillin/Streptomycin.
# Each compound was dissolved in DMSO as a 10 mM stock and used to prepare compound source plates. Serial dilution (1:2, 11-point dose-response curves from 10 μM to 1.87 nM) and compound transfer was performed using the ECHO 550 (Labcyte, Sunnyvale, Calif.) into 384-well clear bottom assay plates (Greiner Bio-One) with appropriate DMSO backfill for a final DMSO concentration of 0.1%. LL29 cells were plated at 1,500 cells/well in 80 μl/well F12 medium supplemented with 1% Fetal Bovine Serum. One hour after addition of the cells, TGF-β1 (Peprotech; 20 ng/mL) was added to the plates to induce fibrosis (ref. 1 and 2 above). Wells treated with TGF-β1 and containing DMSO were used as controls. Cells were incubated at 37° C. and 5% CO2 for 4 days. Following incubation for 4 days, SYTOX green nucleic acid stain (Life Technologies [Thermo Fisher Scientific]) was added to the wells at a final concentration of 1 uM and incubated at room temperature for 30 min. Cells were then fixed using 4% formaldehyde (Electron Microscopy Sciences), washed 3 times with PBS followed by blocking and permeabilization using 3% Bovine Serum Albumin (BSA; Sigma) and 0.3% Triton X-100 (Sigma) in PBS. Cells were then stained with antibody specific to α-smooth muscle actin (αSMA; Abcam) (ref. 1 and 2 above) in 3% Bovine Serum Albumin (BSA; Sigma) and 0.3% Triton X-100 (Sigma) in PBS, and incubated overnight at 4° C. Cells were then washed 3 times with PBS, followed by incubation with Alexa Flor-647 conjugated secondary antibody (Life Technologies [Thermo Fisher Scientific]) and DAPI at room temperature for 1 hour. Cells were then washed 3 times with PBS and plates were sealed for imaging. αSMA staining was imaged by excitation at 630 nm and emission at 665 nm and quantified using the Compartmental Analysis program on the CellInsight CX5 (Thermo Scientific). Dead or apoptotic cells were excluded from analysis based on positive SYTOX green staining. % of total cells positive for αSMA were counted in each well and normalized to the average of 11 wells treated with TGF-31 on the same plate using Dotmatics' Studies Software. The normalized averages (fold change over untreated) of 3 replicate wells for each compound concentration were used to create dose-responses curves and EC50 values were calculated using non-linear regression curve fit in the Dotmatics' Studies Software. The EC50 values are reported.
IC50 [1] [nM],Compound,EC50 (LL29 cells) [nM]
219,"c1ccc(-c2nccc3[nH]c(-c4n[nH]c5cnc(-c6cncc(CNCC7CCCC7)c6)cc45)nc23)nc1 [Compound 154, 1-Cyclopentyl-N-((5-(3-(4-(pyridin-2-yl)-1H-imidazo[4,5-c]pyridin-2-yl)-1H-pyrazolo[3,4-c]pyridin-5-yl)pyridin-3-yl)methyl)methanamine]",140
144,"CCC(=O)Nc1cncc(-c2cc3c(-c4nc5c(N6CCCCC6)nccc5[nH]4)n[nH]c3cn2)c1 [Compound 157, N-(5-(3-(4-(Piperidin-1-yl)-1H-imidazo[4,5-c]pyridin-2-yl)-1H-pyrazolo[3,4-c]pyridin-5-yl)pyridin-3-yl)propionamide]",347
312,"CN(C)c1cncc(-c2cc3c(-c4nc5c(N6CCCCC6)nccc5[nH]4)n[nH]c3cn2)c1 [Compound 163, N,N-Dimethyl-5-(3-(4-(piperidin-1-yl)-1H-imidazo[4,5-c]pyridin-2-yl)-1H-pyrazolo[3,4-c]pyridin-5-yl)pyridin-3-amine]",≤ 9
> 10000,"CN(C)Cc1cncc(-c2cc3c(-c4nc5c(N6CCCCC6)nccc5[nH]4)n[nH]c3cn2)c1 [Compound 169, N,N-Dimethyl-1-(5-(3-(4-(piperidin-1-yl)-1H-imidazo[4,5-c]pyridin-2-yl)-1H-pyrazolo[3,4-c]pyridin-5-yl)pyridin-3-yl)methanamine]",3110
636,"O=C(Nc1cncc(-c2cc3c(-c4nc5c(N6CCCCC6)nccc5[nH]4)n[nH]c3cn2)c1)C1CC1 [Compound 175, N-(5-(3-(4-(Piperidin-1-yl)-1H-imidazo[4,5-c]pyridin-2-yl)-1H-pyrazolo[3,4-c]pyridin-5-yl)pyridin-3-yl)cyclopropanecarboxamide]",≤ 9
1080,CC(C)C(=O)Nc1cncc(-c2cc3c(-c4nc5c(N6CCN(C)CC6)nccc5[nH]4)n[nH]c3cn2)c1 [Compound 217],≥ 9990
> 10000,"CN1CCN(c2nccc3[nH]c(-c4n[nH]c5cnc(-c6cncc(CN7CCCCC7)c6)cc45)nc23)CC1 [Compound 223, 3-(4-(4-Methylpiperazin-1-yl)-1H-imidazo[4,5-c]pyridin-2-yl)-5-(5-(piperidin-1-ylmethyl)pyridin-3-yl)-1H-pyrazolo[3,4-c]pyridine]",≥ 9990
> 10000,"CN1CCN(c2nccc3[nH]c(-c4n[nH]c5cnc(-c6cncc(NC(=O)C7CCCC7)c6)cc45)nc23)CC1 [Compound 229, N-(5-(3-(4-(4-Methylpiperazin-1-yl)-1H-imidazo[4,5-c]pyridin-2-yl)-1H-pyrazolo[3,4-c]pyridin-5-yl)pyridin-3-yl)cyclopentanecarboxamide]",≥ 9990
745,"CN1CCN(c2nccc3[nH]c(-c4n[nH]c5cnc(-c6cncnc6)cc45)nc23)CC1 [Compound 234, 3-(4-(4-Methylpiperazin-1-yl)-1H-imidazo[4,5-c]pyridin-2-yl)-5-(pyrimidin-5-yl)-1H-pyrazolo[3,4-c]pyridine]",1380
66.5,"c1cncc(-c2cc3c(-c4nc5cnccc5[nH]4)n[nH]c3cn2)c1 [Compound 238, 3-(1H-Imidazo[4,5-c]pyridin-2-yl)-5-(pyridin-3-yl)-1H-pyrazolo[3,4-c]pyridine]",≥ 9990
1300,"O=C(Cc1ccccc1)Nc1cncc(-c2cc3c(-c4nc5cnccc5[nH]4)n[nH]c3cn2)c1 [Compound 244, N-(5-(3-(1H-Imidazo[4,5-c]pyridin-2-yl)-1H-pyrazolo[3,4-c]pyridin-5-yl)pyridin-3-yl)-2-phenylacetamide]",≥ 9990
532,"O=C(Nc1cncc(-c2cc3c(-c4nc5cnccc5[nH]4)n[nH]c3cn2)c1)C1CCCCC1 [Compound 256, N-(5-(3-(1H-Imidazo[4,5-c]pyridin-2-yl)-1H-pyrazolo[3,4-c]pyridin-5-yl)pyridin-3-yl)cyclohexanecarboxamide]",≥ 9990
139,"CC(C)CC(=O)Nc1cncc(-c2cc3c(-c4nc5c(-c6ccsc6)nccc5[nH]4)n[nH]c3cn2)c1 [Compound 262, 3-Methyl-N-(5-(3-(4-(thiophen-3-yl)-1H-imidazo[4,5-c]pyridin-2-yl)-1H-pyrazolo[3,4-c]pyridin-5-yl)pyridin-3-yl)butanamide]",≥ 9990
59.9,"Cc1ccncc1-c1cc2c(-c3nc4c(-c5ccsc5)nccc4[nH]3)n[nH]c2cn1 [Compound 265, 5-(4-Methylpyridin-3-yl)-3-(4-(thiophen-3-yl)-1H-imidazo[4,5-c]pyridin-2-yl)-1H-pyrazolo[3,4-c]pyridine]",157
41.3,"CC(C)(C)C(=O)Nc1cncc(-c2cc3c(-c4nc5c(-c6ccsc6)nccc5[nH]4)n[nH]c3cn2)c1 [Compound 268, N-(5-(3-(4-(Thiophen-3-yl)-1H-imidazo[4,5-c]pyridin-2-yl)-1H-pyrazolo[3,4-c]pyridin-5-yl)pyridin-3-yl)pivalamide]",≥ 9990
189,"O=C(Nc1cncc(-c2cc3c(-c4nc5c(-c6ccsc6)nccc5[nH]4)n[nH]c3cn2)c1)c1ccccc1 [Compound 271, N-(5-(3-(4-(Thiophen-3-yl)-1H-imidazo[4,5-c]pyridin-2-yl)-1H-pyrazolo[3,4-c]pyridin-5-yl)pyridin-3-yl)benzamide]",≤ 9
71.5,"CCCC(=O)Nc1cncc(-c2cc3c(-c4nc5c(-c6ccsc6)nccc5[nH]4)n[nH]c3cn2)c1 [Compound 277, N-(5-(3-(4-(Thiophen-3-yl)-1H-imidazo[4,5-c]pyridin-2-yl)-1H-pyrazolo[3,4-c]pyridin-5-yl)pyridin-3-yl)butyramide]",≤ 9
42.8,"O=C(Nc1cncc(-c2cc3c(-c4nc5c(-c6ccsc6)nccc5[nH]4)n[nH]c3cn2)c1)C1CCC1 [Compound 280, N-(5-(3-(4-(Thiophen-3-yl)-1H-imidazo[4,5-c]pyridin-2-yl)-1H-pyrazolo[3,4-c]pyridin-5-yl)pyridin-3-yl)cyclobutanecarboxamide]",≥ 9990
116,"c1ccc(CNCc2cncc(-c3cc4c(-c5nc6c(-c7ccsc7)nccc6[nH]5)n[nH]c4cn3)c2)cc1 [Compound 283, N-Benzyl-1-(5-(3-(4-(thiophen-3-yl)-1H-imidazo[4,5-c]pyridin-2-yl)-1H-pyrazolo[3,4-c]pyridin-5-yl)pyridin-3-yl)methanamine]",≤ 9
